Measurements reported in US20210361768A1, “METHODS AND MATERIALS FOR ASSESSING AND TREATING CANCERS” (Mayo Foundation for Medical Education and Research, priority 2018, published 2021).

System: HER2-positive breast cancer
Assay: NeoALTTO trial: pathologic complete response and event-free survival by treatment arm and adaptive immune signature (AIS) status
Format: in vivo, human
Details: NeoALTTO patients
[1] = AIS deficient, listed as lapatinib

CS(=O)(=O)CCNCc1ccc(-c2ccc3ncnc(Nc4ccc(OCc5cccc(F)c5)c(Cl)c4)c3c2)o1 [Lapatinib, lapatinib]
%6-yr EFS (6-year Event Free Survival rate) (AIS deficient): 68%
% pCR (complete pathological response rate) (AIS deficient): 17%
%6-yr EFS (6-year Event Free Survival rate) [1]: 68%
% pCR (complete pathological response rate) [1]: 17%
%6-yr EFS (6-year Event Free Survival rate) (AIS enrich): 65%
% pCR (complete pathological response rate) (AIS enrich): 21%
